From ChEMBL document CHEMBL4699440, “Comprehensive review on the anti-bacterial activity of 1,2,3-triazole hybrids” (Eur J Med Chem, 2019)
Converted amounts (≈) assume the structure as drawn.

Columns and labels:
Format in all cases: functional
Bacillus cereus = test: Antibacterial activity against Bacillus cereus ATCC 10876 incubated for 24 hrs by microdilution method
Enterococcus faecalis [1] = test: Antibacterial activity against Enterococcus faecalis ATCC 29212 incubated for 24 hrs by microdilution method
Staphylococcus aureus [2] = test: Antibacterial activity against Staphylococcus aureus ATCC 25923 incubated for 24 hrs by microdilution method
Proteus mirabilis = test: Antibacterial activity against Proteus mirabilis ATCC 35659 incubated for 24 hrs by microdilution method
Escherichia coli [3] = test: Antibacterial activity against Escherichia coli ATCC 25922 incubated for 24 hrs by microdilution method
Pseudomonas aeruginosa = test: Antibacterial activity against Pseudomonas aeruginosa ATCC 27853 incubated for 24 hrs by microdilution method
Candida albicans = test: Antifungal activity against Candida albicans ATCC 50193 incubated for 24 hrs by microdilution method
Aspergillus brasiliensis = test: Antifungal activity against Aspergillus brasiliensis ATCC 16404 incubated for 24 hrs by microdilution method
Escherichia coli [4] = test: Antibacterial activity against Escherichia coli JM109 after overnight incubation by CLSI M7-A9 based method
Escherichia coli [5] = test: Antibacterial activity against Escherichia coli ATCC 25922 after overnight incubation by CLSI M7-A9 based method
Enterococcus faecalis [6] = test: Antibacterial activity against Enterococcus faecalis ATCC 29212 after overnight incubation by CLSI M7-A9 based method
Staphylococcus aureus [7] = test: Antibacterial activity against Staphylococcus aureus CIP 6525 after overnight incubation by CLSI M7-A9 based method

Row | MIC (Bacillus cereus) [µg/mL] | MIC (Enterococcus faecalis [1]) [µg/mL] | MIC (Staphylococcus aureus [2]) [µg/mL] | MIC (Proteus mirabilis) [µg/mL] | MIC (Escherichia coli [3]) [µg/mL] | MIC (Pseudomonas aeruginosa) [µg/mL] | MIC (Candida albicans) [µg/mL] | MIC (Aspergillus brasiliensis) [µg/mL] | MIC (Escherichia coli [4]) [µg/mL] | MIC (Escherichia coli [5]) [µg/mL] | MIC (Enterococcus faecalis [6]) [µg/mL] | MIC (Staphylococcus aureus [7]) [µg/mL] | SMILES
1 | 1 (≈ 2.29 µM) | 1 (≈ 2.29 µM) | 1 (≈ 2.29 µM) | 1 (≈ 2.29 µM) | 1 (≈ 2.29 µM) | 1 (≈ 2.29 µM) | 1 (≈ 2.29 µM) | 1 (≈ 2.29 µM) |  |  |  |  | CCCCCCCCCCn1nnc(-c2n[nH]c(=S)n2N)c1-c1n[nH]c(=S)n1N
2 |  |  |  |  |  |  |  |  | > 1.6 | > 1.6 | > 1.6 | > 1.6 | C[C@H](c1ccccc1)N(CC(N)=O)C(=O)CN(C(=O)CN(Cc1cn(CC2CCCCC2)n[n+]1C)C(=O)CN(C(=O)CN(C(=O)CN(Cc1cn(CC2CCCCC2)n[n+]1C)C(=O)CN(C(=O)CN(C(=O)CNCc1cn(CC2CCCCC2)n[n+]1C)[C@H](C)c1ccccc1)[C@H](C)c1ccccc1)[C@H](C)c1ccccc1)[C@H](C)c1ccccc1)[C@H](C)c1ccccc1
3 |  |  |  |  |  |  |  |  | > 1.6 | > 1.6 | > 1.6 | > 1.6 | C[C@H](c1ccccc1)N(CC(N)=O)C(=O)CN(C(=O)CN(Cc1cn(CCN)n[n+]1C)C(=O)CN(C(=O)CN(C(=O)CN(Cc1cn(CCN)n[n+]1C)C(=O)CN(C(=O)CN(C(=O)CN(Cc1cn(CCN)n[n+]1C)C(=O)CN(C(=O)CN(C(=O)CNCc1cn(CCN)n[n+]1C)[C@H](C)c1ccccc1)[C@H](C)c1ccccc1)[C@H](C)c1ccccc1)[C@H](C)c1ccccc1)[C@H](C)c1ccccc1)[C@H](C)c1ccccc1)[C@H](C)c1ccccc1
4 | 1 (≈ 2.15 µM) | 1 (≈ 2.15 µM) | 1 (≈ 2.15 µM) | 1 (≈ 2.15 µM) | 1 (≈ 2.15 µM) | 1 (≈ 2.15 µM) | 1 (≈ 2.15 µM) | 1 (≈ 2.15 µM) |  |  |  |  | CCCCCCCCCCCCn1nnc(-c2n[nH]c(=S)n2N)c1-c1n[nH]c(=S)n1N
5 |  |  |  |  |  |  |  |  | > 1.6 | > 1.6 | > 1.6 | > 1.6 | C[C@H](c1ccccc1)N(CC(N)=O)C(=O)CN(C(=O)CN(Cc1cn(CC2CCCCC2)n[n+]1C)C(=O)CN(C(=O)CN(C(=O)CNCc1cn(CC2CCCCC2)n[n+]1C)[C@H](C)c1ccccc1)[C@H](C)c1ccccc1)[C@H](C)c1ccccc1
6 | 1 (≈ 2.44 µM) | 1 (≈ 2.44 µM) | 1 (≈ 2.44 µM) | 1 (≈ 2.44 µM) | 1 (≈ 2.44 µM) | 1 (≈ 2.44 µM) | 1 (≈ 2.44 µM) | 1 (≈ 2.44 µM) |  |  |  |  | CCCCCCCCn1nnc(-c2n[nH]c(=S)n2N)c1-c1n[nH]c(=S)n1N
7 |  |  |  |  |  |  |  |  | > 1.6 | > 1.6 | > 1.6 | > 1.6 | C[C@H](c1ccccc1)N(CC(N)=O)C(=O)CN(C(=O)CN(Cc1cn(CC2CCCCC2)nn1)C(=O)CN(C(=O)CN(C(=O)CNCc1cn(CC2CCCCC2)nn1)[C@H](C)c1ccccc1)[C@H](C)c1ccccc1)[C@H](C)c1ccccc1
8 | 2 (≈ 3.76 µM) | 2 (≈ 3.76 µM) | 2 (≈ 3.76 µM) | 2 (≈ 3.76 µM) | 2 (≈ 3.76 µM) | 2 (≈ 3.76 µM) | 2 (≈ 3.76 µM) | 2 (≈ 3.76 µM) |  |  |  |  | CCCCCCCCn1nnc(-c2n[nH]c(=S)n2-c2ccccc2)c1-c1n[nH]c(=S)n1-c1ccccc1
9 | 2 (≈ 3.57 µM) | 2 (≈ 3.57 µM) | 2 (≈ 3.57 µM) | 2 (≈ 3.57 µM) | 2 (≈ 3.57 µM) | 2 (≈ 3.57 µM) | 2 (≈ 3.57 µM) | 2 (≈ 3.57 µM) |  |  |  |  | CCCCCCCCCCn1nnc(-c2n[nH]c(=S)n2-c2ccccc2)c1-c1n[nH]c(=S)n1-c1ccccc1
10 | 2 (≈ 3.4 µM) | 2 (≈ 3.4 µM) | 2 (≈ 3.4 µM) | 2 (≈ 3.4 µM) | 2 (≈ 3.4 µM) | 2 (≈ 3.4 µM) | 2 (≈ 3.4 µM) | 2 (≈ 3.4 µM) |  |  |  |  | CCCCCCCCCCCCn1nnc(-c2n[nH]c(=S)n2-c2ccccc2)c1-c1n[nH]c(=S)n1-c1ccccc1
11 | 1 (≈ 2.03 µM) | 1 (≈ 2.03 µM) | 1 (≈ 2.03 µM) | 1 (≈ 2.03 µM) | 1 (≈ 2.03 µM) | 1 (≈ 2.03 µM) | 1 (≈ 2.03 µM) | 1 (≈ 2.03 µM) |  |  |  |  | CCCCCCCCCCCCCCn1nnc(-c2n[nH]c(=S)n2N)c1-c1n[nH]c(=S)n1N
